Data as given in patent publication US20230212221A1, “Novel Therapeutic Uses of Mu-Opiate Receptor Peptides” (Cytogel Pharma, LLC, priority 2012, published 2023).
Read-outs that look alike come from different tables or passages of the source.

How the values were obtained:
[1] = biological target: T1, human mu-opioid receptor (hOPRM1) (Homo sapiens, UniProt P35372); assay: cell-based
T1 construct: expressed in transfected cells
Procedure: The effect of mu-opioid receptor agonists on beta-arrestin recruitment is determined using the PathHunter™ beta-arrestin assay. Briefly, PathHunter™ cell lines expressing human mu-opioid receptor (hOPRM1) are seeded in 384-well microplates at a density of 5,000 cells/well in a total volume of 20 μl, and are allowed to adhere and recover overnight. […] The cells are incubated with the mu-opioid receptor agonist at 37° C. for 90 minutes. The experiment is performed in duplicate.
Microplates are read following signal generation with a PerkinElmer Envision™ instrument for chemiluminescent signal detection.
Percentage activity is calculated using the following formula: % Activity=100%×(mean RLU (relative luminescence unit) of test sample−mean RLU of vehicle control)/(mean MAX RLU control ligand −mean RLU of vehicle control)).

[2] = biological target: T1, human mu-opioid receptor (hOPRM1); assay: cell-based; remark: listed apart in the source
Procedure: The effect of mu-opioid receptor agonists on the inhibition of cAMP production is determined using the […]. Briefly, cAMP Hunter™ cell lines expressing human mu-opioid receptor (hOPRM1) are seeded in 384-well microplates at a density of 10,000 cells/well in a total volume of 20 μl, and are allowed to adhere and recover overnight. […] The cells are incubated with the mu-opioid receptor agonist in the presence of 20 μM forskolin at 37° C. for 30 minutes. The experiment is performed in duplicate.
Assay signal is generated through incubation with 20 μL cAMP XS+ED/CL lysis cocktail for one hour followed by incubation with 20 μL cAMP XS+EA reagent for three hours at room temperature. Microplates are read following signal generation with a PerkinElmer Envision™ instrument for chemiluminescent signal detection.
Percentage activity is calculated using the following formula: % Activity=100%×(1−(mean RLU of test sample−mean RLU of MAX control)/(mean RLU of vehicle control−mean RLU of MAXcontrol).

delta receptors = delta receptors (Homo sapiens, UniProt P41143); details: relative to mu-opiate receptor binding
delta receptors, sequence (P41143 whole entry): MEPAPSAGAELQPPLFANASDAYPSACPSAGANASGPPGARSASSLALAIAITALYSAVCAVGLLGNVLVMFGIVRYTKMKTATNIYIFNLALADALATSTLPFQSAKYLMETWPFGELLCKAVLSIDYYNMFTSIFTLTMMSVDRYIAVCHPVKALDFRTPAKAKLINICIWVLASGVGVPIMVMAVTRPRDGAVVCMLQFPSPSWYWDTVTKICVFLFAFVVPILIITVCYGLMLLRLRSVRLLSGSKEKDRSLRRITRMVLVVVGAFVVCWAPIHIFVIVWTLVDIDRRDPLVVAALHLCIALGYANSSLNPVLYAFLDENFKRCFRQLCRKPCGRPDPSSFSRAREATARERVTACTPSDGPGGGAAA

T1 sequence (P35372 whole entry): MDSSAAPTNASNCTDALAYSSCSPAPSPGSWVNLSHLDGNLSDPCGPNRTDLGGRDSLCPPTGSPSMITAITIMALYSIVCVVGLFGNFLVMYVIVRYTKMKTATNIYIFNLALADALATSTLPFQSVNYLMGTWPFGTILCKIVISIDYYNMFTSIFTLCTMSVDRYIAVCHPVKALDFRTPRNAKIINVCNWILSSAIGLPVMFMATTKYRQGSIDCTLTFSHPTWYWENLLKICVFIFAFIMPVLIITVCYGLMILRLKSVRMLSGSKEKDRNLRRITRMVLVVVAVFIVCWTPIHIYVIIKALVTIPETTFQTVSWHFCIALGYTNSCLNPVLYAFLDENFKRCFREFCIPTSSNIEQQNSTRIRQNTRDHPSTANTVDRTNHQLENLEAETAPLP

Compound: NC(Cc1ccc(O)cc1)C(=O)NC1CCCCNC(=O)C(Cc2ccccc2)NC(=O)C(Cc2c[nH]c3ccccc23)NC1=O [CYT-1010, H-Tyr-c-[D-Lys-Trp-Phe]]
- EC50 ([1]; PathHunter cells expressing hOPRM1, 90 minutes at 37° C., duplicate, read-out: EC50 (nM), beta-arrestin recruitment): 13.1 nM
- Max Percent Activity, beta-arrestin recruitment ([1]; normalized to control ligand and vehicle, PathHunter cells expressing hOPRM1): 121.2%
- EC50 ([2]; cAMP Hunter cells expressing hOPRM1, 20 μM forskolin, 30 minutes at 37° C., duplicate, read-out: EC50 (nM), inhibition of cAMP production): 0.0053 nM
- Max Percent Activity, inhibition of cAMP production ([2]; normalized to control ligand and vehicle, 20 μM forskolin): 98.350%

Compound: H-Tyr-Pro-Trp-Phe-NH2 [SEQ ID NO:1]
- fold weaker binding to delta receptors (delta receptors): over 4,000 fold

Compound: met-enkephalin [reference compound]
- Max Percent Activity, beta-arrestin recruitment [1]: 100.1%
- Max Percent Activity, inhibition of cAMP production [2]: 102.800%
